Data: paper PMC10535004, “Investigation of Peptides for Molecular Recognition of C-Reactive Protein–Theoretical and Experimental Studies” (Analytical Chemistry, 2023)
“Also recorded” adds a separate entry of the source.

B1: P9 clone (M13 phage exposing the P9 peptide) (other)
chain: SWFSDWDLELHA
notes: peptide exposed on the M13 phage clone P9; also called P9 phage; source: M13 bacteriophage clone from phage display; not shown: M13 bacteriophage (peptide exposed on the phage)
B2: P3 peptide (peptide)
peptide: VHWDFRQWWQPS
notes: 12-mer identified by phage display against CRP; immobilised on gold plates for PM-IRRAS, whose method is in the Supporting Information; also called peptide P3; source: synthetic peptide
B3: P2 peptide (peptide)
peptide: GGSDPEGMQGNY
notes: 12-mer identified by phage display against CRP; Immobilised on gold plates for PM-IRRAS; method is in the Supporting Information; also called peptide P2; source: synthetic peptide
B4: P3 clone (M13 phage exposing the P3 peptide) (other)
chain: VHWDFRQWWQPS
notes: peptide exposed on the M13 phage clone P3; the library is described in the Supporting Information; also called P3 phage; source: M13 bacteriophage clone from phage display; not shown: M13 bacteriophage (peptide exposed on the phage)

Key:
[1] = biological target: T1, C-reactive protein (CRP) (Homo sapiens, UniProt P02741); assay: PM-IRRAS of protein-peptide complex on gold; format: binding; details: complex immobilized on gold; peptide 100 μg mL-1, CRP 50 μg mL-1 in PBS
T1 construct: purchased Biorbyt (UK)
T1 sequence (P02741 19-224): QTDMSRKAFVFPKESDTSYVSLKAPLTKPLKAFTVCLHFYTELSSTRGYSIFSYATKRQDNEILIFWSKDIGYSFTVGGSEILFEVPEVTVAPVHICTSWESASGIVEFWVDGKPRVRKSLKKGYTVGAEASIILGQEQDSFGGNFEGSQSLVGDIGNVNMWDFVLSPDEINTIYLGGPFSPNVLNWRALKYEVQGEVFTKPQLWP
Method: (§1) 2.2. PM-IRRS analysis (polarisation modulation infrared reflection absorption
(§2) Three types o f samples were prepared and analysed: (a) peptide solution in PBS (100 μg mL-1), (b)
(§3) CRP solution in PBS (50 μg mL-1), and (c) protein -peptide complex. The complex was prepared

[2] = PM-IRRAS of peptide layers on gold; format: physicochemical; details: for secondary structure on gold (in words): amide I band, peptide 100 μg mL-1 in PBS
Method: as §1, §2, §3

[3] = TEM analysis of peptide fibers; format: physicochemical; details: 1 mg mL-1 in PBS
Method: 2. Surface characterisation
Suspensions of selected phages (10^9 pfu mL-1) in PBS and corresponding peptides (1 mg mL-1) in PBS were adsorbed onto carbon-coated copper grids (Sigma) for 3 min, stained with 1.5% uracyl acetate. The samples were photographed using Tecani Spirit BioTWIN microscope at 120kV, and images were processed by iTEM program. […]

[4] = biological target: T2, C-reactive protein (human, UniProt P02741 19-224); assay: ELISA; phage clones on CRP, phages detected by the enzymatic reaction of tagged anti-M13 antibodies, absorbance at 450 nm, compared with WT phage
T2 construct: C-reactive protein (CRP), cyclic pentamer of five identical, noncovalently connected subunits of 206 amino acids each (printed); PDB 3PVO was used only for docking; also called CRP
T2 sequence (looked up): T1 sequence (P02741 19-224)

[5] = biological target: T2, C-reactive protein; assay: differential pulse voltammetry (electrochemical); P3 peptide covalently immobilised on TESPSA-silanised ITO, blocked with 1% BSA; 20 uL protein in PBS pH 7.4 for 30 min at room temperature; 1 mM Fc(CH2OH)2 in PBS as redox probe; drop of peak current fitted with the Hill equation, Kd = KA^n; details: both partners purified
[6] = biological target: T2, C-reactive protein; assay: PM-IRRAS; peptides immobilised on gold plates; spectra of peptide, CRP and the protein-peptide complex compared; details: both partners purified
[7] = immobilized on gold, assuming helical conformation

Molecule	peptide-CRP complex by PM-IRRAS (in words) [1]	secondary structure on gold (in words) [2]	fiber structure of peptide (in words) [3]	ELISA signal, fold over WT phage [4] [fold]	also measured
SWFSDWDLELHA [P9]	the secondary structure of the complex may be affected	presence of β-sheets; also recorded: contains β and α or disordered peptide chains	The fibers self-assemble into unique structures called twisted nanoribbons		angle between the helical axis and the surface [2, 7]: about 48 °
GGSDPEGMQGNY [P2]	the P2-CRP complex is formed, but the effect of the P2 on the CRP secondary structure is different compared to P9	higher amount of disordered structures in the secondary structure	loose fibers, which are unordered and without forming a specific structure		orientation of helix axis (in words) [2, 7]: nearly parallel to the gold surface; amide I band position ([2]; peptide immobilized on gold): 1674 cm–1
B1				16	
B2					Kd [5]: 35 ± 1.2 nM
B3					binding result [6]: binds
B4				13	
